Laboratory results published in patent US9102657B2, “Sodium salt of (R)-3-[6-amino-pyridin-3-yl]-2-(1-cyclohexyl-1H-imidazol-4-yl)-propionic acid” (Sanofi, priority 2011, dated 2015).

Experiments:
[1] = Dynamic Vapor Sorption (DVS), moisture sorption/desorption isotherms at 25° C.; type: physicochemical
Experimental: Moisture sorption/desorption isotherms were recorded on a SPS11-10μ from Projekt Messtechnik (Ulm, Germany). One cycle was run at 25° C., in which the sample was first stepwise decreased to 0% Room humidity (RH) and then the relative humidity was stepwise increased from 0 to 95% and the weight of the sample was measured. Typical total measurement times for both cycles were about 20 to 30 hours.

[2] = Chiral stability: solid stored at 40° C. and 75% RH, enantiomeric excess by chiral HPLC; details: for Enantiomeric excess: storage condition (B): solid, 40° C. and 75% RH, 4 weeks; for chemical / chiral stability (in words): elevated temperature and humidity, storage 40° C. and 75% RH, sodium salt dihydrate
Experimental: Enantiomeric excess was determined by chiral HPLC on a HPLC system containing a Quaternary HPLC pump (e.g. HP 1100), an auto sampler, an UV absorbance detector (e.g. DAD Agilent Technologies or other adequate HPLC-System) and a computer data acquisition system with suitable software (e.g. Dionex-Chromeleon). A Chirobiotic R, Supelco (Astec) (4.6×250 mm; 5 μm) column was used as stationary phase and a solution of 800 mL water, 1200 mL acetonitrile and 1.0 g ammoniumacetate was used as mobile phase. The flow rate was set to a value of 1.5 mL/minute and the oven temperature was set to 45° C. Detection was performed by absorbance of the compounds at 236 nm (UV) (bandwidth: 8 nm) and reference wavelength was set to 450 nm (bandwidth: 50 nm). Typical total run times were in the range of about 15 minutes. For sample preparation 50 mg of the substance were accurately weighed into a 10 mL volumetric flask and dissolved and diluted to volume with solvent (acetonitrile/water 50:50). For the HPLC analysis 5 μL of the sample were injected into the system.
Gradient used: Isograt (15 minutes 100% mobile phase A)

Enantiomeric excess [2] [%]	Enantiomeric excess ([2]; listed as (R)-3-[6-amino-pyridin-3-yl]-2-(1-cyclohexyl-1H-imidazol-4-yl)-propionic acid) [%]	chemical / chiral stability (in words) ([2]; listed as sodium salt of (R)-3-[6-amino-pyridin-3-yl]-2-(1-cyclohexyl-1H-imidazol-4-yl)-pr)	chemical / chiral stability (in words) [2]	SMILES	hygroscopicity, absorption or adsorption of water from the surrounding environment (in words) [1]	sorption and desorption isotherms (in words) ([1]; DVS 25° C., between 30% relative humidity and 0.4% relative humidity)
–	–	–	–	Nc1ccc(CC(C(=O)O)c2cn(C3CCCCC3)cn2)cn1 (stereo not shown) [3-[6-amino-pyridin-3-yl]-2-(1-cyclohexyl-1H-imidazol-4-yl)-propionic acid]	hygroscopic	–
91.6	91.6	–	–	Nc1ccc(C[C@@H](C(=O)O)c2cn(C3CCCCC3)cn2)cn1 [Example 1, (R)-3-[6-amino-pyridin-3-yl]-2-(1-cyclohexyl-1H-imidazol-4-yl)-propionic acid]	–	–
–	–	chemically stable	remain stable	Nc1ccc(C[C@@H](C(=O)[O-])c2cn(C3CCCCC3)cn2)cn1.[Na+] [Example 3, (R)-3-[6-amino-pyridin-3-yl]-2-(1-cyclohexyl-1H-imidazol-4-yl)-propionic acid sodium salt dihydrate]	favorable reduced absorption or adsorption of water molecules	almost the same (low water uptake or water desorption)
